From patent US11918693B2, “Ibuprofen and acetaminophen tablet” (GlaxoSmithKline Consumer Healthcare Holdings (US) LLC, priority 2019, dated 2024)

System: pyrexia induced by intravenous reference standard endotoxin (RSE) in healthy males
Format: in vivo, human
Conditions: for WSTD0-2 h, Treatment difference vs. Placebo / WSTD0-4 h, Treatment difference vs. Placebo / WSTD0-6 h, Treatment difference vs. Placebo / WSTD0-8 h, Treatment difference vs. Placebo / WSTD6-8 h, Treatment difference vs. Placebo / WSTD50-110 min, Treatment difference vs. Placebo / WSTD80-110 min, Treatment difference vs. Placebo / Period post dose in which subjects' temperatures were significantly reduced relative to placebo / Headache due to RSE, subjects / Nausea due to RSE, subjects / Pyrexia, AE considered related to RSE, subjects: APAP 500 mg; for WSTD50-110 min, LSM / WSTD50-110 min, Mean / WSTD80-110 min, LSM / WSTD80-110 min, Mean: post hoc analysis; for WSTD50-110 min, LSM / WSTD50-110 min, Mean / WSTD80-110 min, LSM / WSTD80-110 min, Mean / WSTD0-2 h, Mean (SD) / WSTD0-4 h, Mean (SD) / WSTD0-6 h, Mean (SD) / WSTD6-8 h, Mean (SD) / WSTD0-8 h, Mean (SD): IBU dose 250 mg, APAP dose 500 mg; for Period post dose in which subjects' temperatures were significantly reduced relative to placebo / WSTD0-2 h, Mean (SD) / WSTD0-4 h, Mean (SD) / WSTD0-6 h, Mean (SD) / WSTD6-8 h, Mean (SD) / WSTD0-8 h, Mean (SD): single oral dose; for WSTD0-8 h, Mean (SD): primary efficacy endpoint; for Headache due to RSE, subjects / Nausea due to RSE, subjects / Pyrexia, AE considered related to RSE, subjects: study drug treatment period
Description: This study evaluated the antipyretic efficacy, onset of effect and tolerability of a single dose of FDC IBU/APAP 250 mg/500 mg compared with placebo and each monocomponent at the same dose.
This was a single-center, randomized, double-blind, placebo-controlled, full-factorial study in healthy males aged 18-55 years in whom pyrexia was induced by intravenous administration of a reference standard endotoxin (RSE). After RSE administration and attainment of an oral temperature ≥100.5° F. (38.1° C.), subjects were randomized 3:3:3:1 to receive a single oral dose of FDC IBU/APAP 250 mg/500 mg, APAP 500 mg, IBU 250 mg, or placebo in double-blind fashion. Oral temperature was subsequently measured every 10 minutes for the first 2 hours and then every 30 minutes until 8 hours post dose. Time-weighted sum of temperature differences from baseline to 8 hours (WSTD0-8) after study medication administration was the primary efficacy endpoint. Secondary endpoints included WSTD scores from 0-2, 0-4, 0-6, and 6-8 hours; time to return to “normal” temperature; time to rescue medication use; global drug evaluation. Safety was monitored and assessed via adverse events (AEs).
This was a single-center, randomized, double-blind, placebo-controlled, full-factorial single-dose study in subjects in whom pyrexia was induced by intravenous (IV) administration of a reference standard endotoxin (RSE). In this standardized model, fever was induced by endotoxin (gram-negative bacterial lipopolysaccharide) derived from Escherichia coli O113, which was developed as a national biological reference standard in 1976 by the National Institute of Allergy and Infectious Diseases and the US Food and Drug Administration. The RSE used in this study was supplied by List Biological Laboratories, Inc. (Campbell, CA, USA).
Subject eligibility was determined at a screening visit within 28 days prior to study drug treatment; eligible subjects were assigned sequential subject numbers by the investigator. Subjects were healthy males aged 18-55 years, inclusive, with a normal, stable body temperature at screening and day 0, body mass index of 17.5-37.0 kg/m^2, and total body weight ≥50 kg at screening, demonstrably adequate veins for IV catheter insertion, and who were willing and able to comply with all study procedures. […] Female subjects were not enrolled due to potential teratogenicity concerns associated with the use of the RSE.
Subjects entered the study center on day 0 to confirm eligibility, i.e., afebrile state, defined as a mean oral temperature 97.4° F. to 98.8° F. not varying by more than 0.4° F. on 3 repeated measures over 30 minutes and still meeting inclusion/exclusion criteria. Subjects who remained eligible for the study remained in-house until after completion of all study procedures.
Subjects received prophylactic ondansetron, 8 mg intravenously, approximately 30 minutes prior to administration of the RSE to reduce the likelihood of nausea and vomiting. Prior to RSE administration, changes to prior treatments were recorded; blood pressure and HR were measured; and a 12-lead ECG was obtained. Oral temperatures were recorded, with “normal” for each subject being the temperature recorded immediately prior to RSE administration.
Subject eligibility Subject assessments included physical examination, vital sign measurement, ECG evaluation, and laboratory studies (hematology, serum chemistry, urinalysis). The baseline oral temperature was defined as the temperature reading obtained immediately prior to administration of study medication, after the subject had reached an RSE-induced oral temperature ≥100.5° F. (38.1° C.) that was required for randomization. After randomization and study medication administration, oral temperature was measured using a standardized electronic digital thermometer every 10 minutes for the first 2 hours, and then every 30 minutes until 8 hours post dose. Subjects were assessed for emergence of AEs at each temperature evaluation time point. […]

[1] = first minus second treatment, IBU 250 mg

| SMILES | WSTD0-2 h, Treatment difference vs. Placebo [1] | WSTD0-4 h, Treatment difference vs. Placebo [1] | WSTD0-6 h, Treatment difference vs. Placebo [1] | WSTD0-8 h, Treatment difference vs. Placebo [1] | WSTD6-8 h, Treatment difference vs. Placebo [1] | WSTD50-110 min, LSM | WSTD50-110 min, Mean | WSTD80-110 min, LSM | WSTD80-110 min, Mean | WSTD50-110 min, Treatment difference vs. Placebo (post hoc, IBU 250 mg) | WSTD80-110 min, Treatment difference vs. Placebo (post hoc, IBU 250 mg) | Period post dose in which subjects' temperatures were significantly reduced relative to placebo (IBU 250 mg) [min] | WSTD0-2 h, Mean (SD) | WSTD0-4 h, Mean (SD) | WSTD0-6 h, Mean (SD) | WSTD6-8 h, Mean (SD) | WSTD0-8 h, Mean (SD) | Headache due to RSE, subjects (IBU 250 mg) [%] | Nausea due to RSE, subjects (IBU 250 mg) [%] | Pyrexia, AE considered related to RSE, subjects (IBU 250 mg) [%] | other results |
| --- | --- | --- | --- | --- | --- | --- | --- | --- | --- | --- | --- | --- | --- | --- | --- | --- | --- | --- | --- | --- | --- |
| CC(C)Cc1ccc(C(C)C(=O)O)cc1 (stereo not shown) [IBU, 2-(4-isobutylphenyl) propionic acid] | 0.51 | 1.26 | 1.83 | 2.23 | 0.51 | 0.103 | −0.02 | 0.190 | 0.13 | 0.374 | 0.251 | 100 to 180 | −0.19 (1.86) | 2.61 (3.34) | 6.65 (4.79) | 5.49 (2.26) | 11.09 (6.35) | 14.9 | 12.6 | 41.4 | Subjects who took rescue medication (8-hour treatment period, IBU 250 mg): 1 subject; Global Evaluation of study medication as a fever reducer, in words (ANCOVA analysis, 6-point scale, P<0.05): rated their treatment significantly higher than those in the placebo group; WSTD0-2 h, Treatment difference vs. APAP 500 mg [1]: −0.09; WSTD0-4 h, Treatment difference vs. APAP 500 mg [1]: −0.16; WSTD0-6 h, Treatment difference vs. APAP 500 mg [1]: −0.09; WSTD0-8 h, Treatment difference vs. APAP 500 mg [1]: −0.12; WSTD6-8 h, Treatment difference vs. APAP 500 mg [1]: −0.01; WSTD50-110 min, Treatment difference vs. APAP 500 mg (post hoc, IBU 250 mg): −0.032; WSTD80-110 min, Treatment difference vs. APAP 500 mg (post hoc, IBU 250 mg): −0.002 |
| CC(=O)Nc1ccc(O)cc1 [APAP, N-(4-hydroxyphenyl)acetamide] | 0.60 | 1.42 | 1.92 | 2.35 | 0.53 | 0.135 | 0.19 | 0.192 | 0.23 | 0.406 | 0.253 | 100 to 270 | 0.21 (1.73) | 3.41 (3.17) | 7.65 (4.60) | 5.84 (2.33) | 12.39 (6.28) | 5.7 | 9.2 | 29.9 |  |
